Reference: ChEMBL document CHEMBL2429826, “Design, synthesis, and evaluation of prodrugs of ertapenem” (ACS Med Chem Lett, 2013)

Tests used:
[1] = tested on: Canis familiaris; test: Bioavailability in Beagle dog assessed as ertapenem at 10 mg/kg, ID administered as infusion; type: ADME, organism-based, Canis lupus familiaris; conditions: in vivo, other
[2] = tested on: Canis familiaris; test: AUC (0 to 8 hrs) in Beagle dog assessed as (4R,5S,6S)-3-((3S,5S)-5-(3-(ethoxycarbonyl)phenylcarbamoyl)pyrrolidin-3-ylthio)-6-((R)-1-hydroxyethyl)-4-methyl-7-oxo-1-azabicyclo[3.2.0]hept-2-ene-2-carboxylic acid at 10 mg/kg, ID administered as infusion; type: ADME, organism-based, Canis lupus familiaris, Plasma; parameters: time < 8 hr, dose 10 mg/kg, route intraduodenal; conditions: in vivo, other
[3] = tested on: Canis familiaris; test: AUC (0 to 8 hrs) in Beagle dog assessed as 3-((2S,4S)-4-((4R,5S,6S)-2-(ethoxycarbonyl)-6-((R)-1-hydroxyethyl)-4-methyl-7-oxo-1-azabicyclo[3.2.0]hept-2-en-3-ylthio)pyrrolidine-2-carboxamido)benzoic acid at 10 mg/kg, ID administered as infusion; type: ADME, organism-based, Canis lupus familiaris, Plasma; parameters: time < 8 hr, dose 10 mg/kg, route intraduodenal; conditions: in vivo, other
[4] = tested on: Canis familiaris; test: AUC (0 to 8 hrs) in Beagle dog assessed as ertapenem at 10 mg/kg, ID administered as infusion; type: ADME, organism-based, Canis lupus familiaris, Plasma; parameters: time < 8 hr, dose 10 mg/kg, route intraduodenal; conditions: in vivo, other
[5] = tested on: Rattus norvegicus; test: Bioavailability in Sprague-Dawley rat assessed as ertapenem at 10 mg/kg, ID administered as infusion; type: ADME, organism-based; conditions: in vivo, other
[6] = tested on: Rattus norvegicus; test: AUC (0 to 8 hrs) in Sprague-Dawley rat assessed as (4R,5S,6S)-3-((3S,5S)-5-(3-(ethoxycarbonyl)phenylcarbamoyl)pyrrolidin-3-ylthio)-6-((R)-1-hydroxyethyl)-4-methyl-7-oxo-1-azabicyclo[3.2.0]hept-2-ene-2-carboxylic acid at 10 mg/kg, ID administered as infusion; type: ADME, organism-based, Plasma; parameters: time < 8 hr, dose 10 mg/kg, route intraduodenal; conditions: in vivo, other, BLD = below limit of detection
[7] = tested on: Rattus norvegicus; test: AUC (0 to 8 hrs) in Sprague-Dawley rat assessed as 3-((2S,4S)-4-((4R,5S,6S)-2-(ethoxycarbonyl)-6-((R)-1-hydroxyethyl)-4-methyl-7-oxo-1-azabicyclo[3.2.0]hept-2-en-3-ylthio)pyrrolidine-2-carboxamido)benzoic acid at 10 mg/kg, ID administered as infusion; type: ADME, organism-based, Plasma; parameters: time < 8 hr, dose 10 mg/kg, route intraduodenal; conditions: in vivo, other, BLD = below limit of detection
[8] = tested on: Rattus norvegicus; test: AUC (0 to 8 hrs) in Sprague-Dawley rat assessed as ertapenem at 10 mg/kg, ID administered as infusion; type: ADME, organism-based, Plasma; parameters: time < 8 hr, dose 10 mg/kg, route intraduodenal; conditions: in vivo, other
[9] = Metabolic stability in dog plasma assessed as compound remaining at 50 uM after 60 mins by LC-MS/MS analysis; type: ADME, cell-free, Canis lupus familiaris; conditions: read-out: Stability
[10] = Metabolic stability in human plasma assessed as compound remaining at 50 uM after 60 mins by LC-MS/MS analysis; type: ADME, cell-free; conditions: read-out: Stability
[11] = Metabolic stability in rat plasma assessed as compound remaining at 50 uM after 60 mins by LC-MS/MS analysis; type: ADME, cell-free; conditions: read-out: Stability
[12] = Apparent permeability of the compound in pig LLC-PK1 cells
[13] = tested on: Rattus norvegicus; test: Bioavailability in Sprague-Dawley rat assessed as ertapenem at 4.4 mg/kg, ID administered as infusion; type: ADME, organism-based; conditions: in vivo, other
[14] = tested on: Rattus norvegicus; test: AUC (0 to 8 hrs) in Sprague-Dawley rat assessed as (4R,5S,6S)-3-((3S,5S)-5-(3-(ethoxycarbonyl)phenylcarbamoyl)pyrrolidin-3-ylthio)-6-((R)-1-hydroxyethyl)-4-methyl-7-oxo-1-azabicyclo[3.2.0]hept-2-ene-2-carboxylic acid at 4.4 mg/kg, ID administered as infusion; type: ADME, organism-based, Plasma; parameters: time < 8 hr, dose 4.4 mg/kg, route intraduodenal; conditions: in vivo, other
[15] = tested on: Rattus norvegicus; test: AUC (0 to 8 hrs) in Sprague-Dawley rat assessed as 3-((2S,4S)-4-((4R,5S,6S)-2-(ethoxycarbonyl)-6-((R)-1-hydroxyethyl)-4-methyl-7-oxo-1-azabicyclo[3.2.0]hept-2-en-3-ylthio)pyrrolidine-2-carboxamido)benzoic acid at 4.4 mg/kg, ID administered as infusion; type: ADME, organism-based, Plasma; parameters: time < 8 hr, dose 4.4 mg/kg, route intraduodenal; conditions: in vivo, other
[16] = tested on: Rattus norvegicus; test: AUC (0 to 8 hrs) in Sprague-Dawley rat assessed as ertapenem at 4.4 mg/kg, ID administered as infusion; type: ADME, organism-based, Plasma; parameters: time < 8 hr, dose 4.4 mg/kg, route intraduodenal; conditions: in vivo, other
[17] = Metabolic stability in monkey plasma assessed as compound remaining at 50 uM after 60 mins by LC-MS/MS analysis; type: ADME, cell-free, Macaca mulatta; conditions: rhesus monkey, read-out: Stability
[18] = Drug metabolism in monkey hepatocytes assessed as tebipenem level after 15 mins; type: ADME, cell-based, Macaca mulatta, Hepatocyte; conditions: rhesus monkey, 0.25 h
[19] = Drug metabolism in dog hepatocytes assessed as tebipenem level after 15 mins; type: ADME, cell-based, Canis lupus familiaris, Hepatocyte; conditions: 0.25 h
[20] = tested on: Hepatocyte; test: Drug metabolism in human hepatocytes assessed as tebipenem level after 15 mins; type: ADME, cell-based; conditions: 0.25 h
[21] = tested on: Hepatocyte; test: Drug metabolism in rat hepatocytes assessed as tebipenem level after 15 mins; type: ADME, cell-based; conditions: 0.25 h
[22] = Drug metabolism in monkey liver microsomes assessed as tebipenem level after 15 mins; type: ADME, Macaca mulatta, Microsome; conditions: rhesus monkey, 0.25 h
[23] = Drug metabolism in dog liver microsomes assessed as tebipenem level after 15 mins; type: ADME, Canis lupus familiaris, Microsome; conditions: 0.25 h
[24] = tested on: Liver microsomes; test: Drug metabolism in human liver microsomes assessed as tebipenem level after 15 mins; type: ADME, Microsome; conditions: 0.25 h
[25] = tested on: Liver microsomes; test: Drug metabolism in rat liver microsomes assessed as tebipenem level after 15 mins; type: ADME, Microsome; conditions: 0.25 h
[26] = AUC (0 to 8 hrs) in Beagle dog at 1 mg/kg, iv; type: ADME, organism-based, Canis lupus familiaris; parameters: time < 8 hr, dose 1 mg/kg, route intravenous; conditions: plasma
[27] = Oral bioavailability in Sprague-Dawley rat at 10 mg/kg; type: ADME, organism-based; conditions: in vivo
[28] = AUC (0 to 8 hrs) in Sprague-Dawley rat at 10 mg/kg, po; type: ADME, organism-based; parameters: time < 8 hr, dose 10 mg/kg, route oral; conditions: plasma
[29] = AUC (0 to 8 hrs) in Sprague-Dawley rat at 1 mg/kg, iv; type: ADME, organism-based; parameters: time < 8 hr, dose 1 mg/kg, route intravenous; conditions: plasma
[30] = AUC (0 to 8 hrs) in Sprague-Dawley rat at 10 mg/kg, ID administered as infusion; type: ADME, organism-based; parameters: time < 8 hr, dose 10 mg/kg, route intraduodenal; conditions: plasma

C[C@@H](O)[C@H]1C(=O)N2C(C(=O)OCOC(=O)C(C)(C)C)=C(S[C@@H]3CN[C@H](C(=O)Nc4cccc(C(=O)OCOC(=O)C(C)(C)C)c4)C3)[C@H](C)[C@H]12
F [1]: 3% | AUC ([2]; BLD = below limit of detection): BLD | AUC [3]: 0.04 µM·h | AUC [4]: 1.81 µM·h | F [5]: 0.37% | AUC [6]: BLD | AUC [7]: BLD | AUC [8]: 0.2 µM·h | remaining at 1 h, 50 µM [9]: 37% | remaining at 1 h, 50 µM [10]: 36% | remaining at 1 h, 50 µM [11]: 2%

C[C@@H](O)[C@H]1C(=O)N2C(C(=O)O)=C(SC3CN(C4=NCCS4)C3)[C@H](C)[C@H]12 [TEBIPENEM]
Papp [12]: 0.7 ×10⁻⁶ cm/s

CCOC(=O)C1=C(S[C@@H]2CN[C@H](C(=O)Nc3cccc(C(=O)OCC)c3)C2)[C@H](C)[C@@H]2[C@@H]([C@@H](C)O)C(=O)N12
F [1]: 18.1% | AUC [2]: 3.34 µM·h | AUC [3]: 2.17 µM·h | AUC [4]: 14.3 µM·h | F [13]: 4.98% | AUC [14]: 0.42 µM·h | AUC [15]: 0.07 µM·h | AUC [16]: 1.54 µM·h | Papp [12]: 13 ×10⁻⁶ cm/s | remaining at 1 h, 50 µM [17]: 77% | remaining at 1 h, 50 µM [9]: 75% | remaining at 1 h, 50 µM [10]: 5% | remaining at 1 h, 50 µM [11]: 0%

Cc1oc(=O)oc1COC(=O)C1=C(S[C@@H]2CN[C@H](C(=O)Nc3cccc(C(=O)OCc4oc(=O)oc4C)c3)C2)[C@H](C)[C@@H]2[C@@H]([C@@H](C)O)C(=O)N12
F [5]: 0.77% | AUC [8]: 0.3 µM·h | remaining at 1 h, 50 µM [17]: 2% | remaining at 1 h, 50 µM [9]: 3% | remaining at 1 h, 50 µM [10]: 1% | remaining at 1 h, 50 µM [11]: 1%

C[C@@H](O)[C@H]1C(=O)N2C(C(=O)OCOC(=O)C(C)(C)C)=C(SC3CN(C4=NCCS4)C3)[C@H](C)[C@H]12 [TEBIPENEM PIVOXIL]
Drug metabolism [18]: Active | Drug metabolism [19]: Active | Drug metabolism [20]: Active | Drug metabolism [21]: Active | Drug metabolism [22]: Active | Drug metabolism [23]: Active | Drug metabolism [24]: Active | Drug metabolism [25]: Active | remaining at 1 h, 50 µM [17]: 0% | remaining at 1 h, 50 µM [9]: 25% | remaining at 1 h, 50 µM [10]: 0% | remaining at 1 h, 50 µM [11]: 0%

C[C@@H](O)[C@H]1C(=O)N2C3=C(S[C@@H]4CN[C@@H](C4)C(=O)Nc4cccc(c4)C(=O)OCCCOC3=O)[C@H](C)[C@H]12
F [1]: 0.53% | AUC [4]: 0.44 µM·h | remaining at 1 h, 50 µM [17]: 49% | remaining at 1 h, 50 µM [9]: 79% | remaining at 1 h, 50 µM [10]: 17% | remaining at 1 h, 50 µM [11]: 0%

C[C@@H](O)[C@H]1C(=O)N2C(C(=O)O)=C(S[C@@H]3CN[C@H](C(=O)Nc4cccc(C(=O)O)c4)C3)[C@H](C)[C@H]12
AUC(0-t) at 8 h [26]: 8.9 µM·h | bioavailability [27]: 0.53% | AUC(0-t) at 8 h [28]: 0.39 µM·h | AUC(0-t) at 8 h [29]: 7.84 µM·h | AUC(0-t) at 8 h [30]: 0.48 µM·h | Papp [12]: 0.5 ×10⁻⁶ cm/s
